Experimental data reported in patent publication US12173018B2, “Penicillin-binding protein inhibitors” (priority 2018, dated 2024).
Values after ≈ are worked out from the molar mass of the structure shown. Like-named read-outs stand apart in the source and are kept apart here.

Columns and labels:
[1] = system: E. coli ATCC 25922; assay: Broth microdilution MIC, E. coli ATCC 25922; assay type: cell-based; settings: Escherichia coli, ATCC25922; E. coli ATCC 25922, broth microdilution; read-out: MIC E. coli 25922
Procedure, shortened: (§1)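 CLSI broth microdilution in cation-supplemented Mueller-Hinton broth; 2-fold compound dilutions inoculated at 5×10^5 CFU/mL from a 3-5 h log-phase culture. Plates incubated 16-20 hours at 37° C; MIC read visually as lowest concentration with no growth.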

[2] = system: E. coli AG100; assay: Broth microdilution MIC, E. coli AG100 (wild-type parent); assay type: cell-based; settings: Escherichia coli
Procedure, shortened: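 Broth microdilution in cation-supplemented Mueller-Hinton broth, 2-fold serial compound dilutions, inoculum 5×10^5 CFU/mL from 3-5 h log culture.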

[3] = system: E. coli 901C; assay: microbe, parasite or virus in culture; assay type: cell-based; settings: Escherichia coli, read-out: MIC E. coli 901C
Procedure, shortened: as §1

[4] = system: E. coli AG100A; assay: microbe, parasite or virus in culture; assay type: cell-based; settings: Escherichia coli, read-out: MIC E. coli AG100A
Procedure, shortened: as §1

[5] = system: E. coli D22; assay: microbe, parasite or virus in culture; assay type: cell-based; settings: Escherichia coli
Procedure, shortened: as §1

[6] = system: K. pneumoniae SI-117; assay: microbe, parasite or virus in culture; assay type: cell-based; settings: Klebsiella pneumoniae, SI117, read-out: MIC K. pneumoniae SI-117
Procedure, shortened: as §1

[7] = system: K. pneumoniae UMM; assay: microbe, parasite or virus in culture; assay type: cell-based; settings: Klebsiella pneumoniae, read-out: MIC K. pneumoniae UMM
Procedure, shortened: as §1

[8] = system: K. pneumoniae 848844; assay: microbe, parasite or virus in culture; assay type: cell-based, Klebsiella pneumoniae
Procedure, shortened: as §1

[9] = system: N. gonorrhoeae ATCC 49226; assay: Liquid broth MIC, N. gonorrhoeae ATCC 49226; assay type: cell-based; settings: Neisseria gonorrhoeae, ATCC49226; N. gonorrhoeae ATCC 49226, liquid broth; read-out: Minimum Inhibitory Concentration, N. gonorrhoeae ATCC 49226
Procedure, shortened: (§2)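 MIC taken by eye as the lowest well lacking growth after 40-42 h at 36° C under 5% CO2. Compounds were 2-fold serially diluted; the starting inoculum of 5×10^5 CFU/mL came from direct colony suspensions grown on Kellogg's-supplemented GC agar.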

[10] = system: N. gonorrhoeae FA1090; assay: Liquid broth MIC, N. gonorrhoeae FA1090; assay type: cell-based; settings: Neisseria gonorrhoeae; N. gonorrhoeae FA1090, liquid broth; read-out: Minimum Inhibitory Concentration, N. gonorrhoeae FA1090
Procedure, shortened: as §2

[11] = system: N. gonorrhoeae WHO F; assay: Liquid broth MIC, N. gonorrhoeae WHO F; assay type: cell-based; settings: Neisseria gonorrhoeae; N. gonorrhoeae WHO F, liquid broth; read-out: Minimum Inhibitory Concentration, N. gonorrhoeae WHO F
Procedure, shortened: as §2

[12] = system: N. gonorrhoeae FA19; assay: Liquid broth MIC, N. gonorrhoeae FA19; assay type: cell-based; settings: Neisseria gonorrhoeae; N. gonorrhoeae FA19, liquid broth; read-out: Minimum Inhibitory Concentration, N. gonorrhoeae FA19
Procedure, shortened: as §2

[13] = wild-type parent E. coli AG100, broth microdilution, read-out: MIC E. coli AG100
[14] = hyper-permeable E. coli 901C, broth microdilution
[15] = hyper-permeable E. coli D22, broth microdilution, read-out: MIC E. coli D22
[16] = K. pneumoniae UMM producing SHV-5 and KPC-2
[17] = Klebsiella pneumoniae, K. pneumoniae 848844 producing SHV-11 and KPC-2, read-out: MIC K. pneumoniae 848844

| SMILES | MIC [1] [µg/mL] | MIC [2, 13] [µg/mL] | MIC [3, 14] [µg/mL] | MIC [4] [µg/mL] | MIC [5, 15] [µg/mL] | MIC [6] [µg/mL] | MIC [7, 16] [µg/mL] | MIC [8, 17] [µg/mL] | MIC [9] [µg/mL] | MIC [10] [µg/mL] | MIC [11] [µg/mL] | MIC [12] [µg/mL] | MIC ([2]; AG100, read-out: MIC E. coli AG100) [µg/mL] | MIC ([3]; 901C) [µg/mL] | MIC ([5]; D22, read-out: MIC E. coli D22) [µg/mL] | MIC [7] [µg/mL] | MIC ([8]; Klebsiella pneumoniae, 848844, read-out: MIC K. pneumoniae 848844) [µg/mL] |
| --- | --- | --- | --- | --- | --- | --- | --- | --- | --- | --- | --- | --- | --- | --- | --- | --- | --- |
| CCN1CCN(C(=O)NC(C(=O)N[C@H]2Cc3cccc(C(=O)O)c3OB2O)c2csc(N)n2)C(=O)C1=O (stereo partly drawn) [Example 5, (3R)-3-(2-(2-aminothiazol-4-yl)-2-(4-ethyl-2,3-dioxopiperazine-1-carboxamido)acetamido)-2-hydroxy-3,4-dihydro-2H-benzo[e][1,2]oxaborinine-8-carboxylic acid] | 8 to 16 | 8 to 16 | < 0.25 | 2 to 4 | 2 to 4 | 8 to 16 | 8 to 16 | 32 to 64 | 1 to 2 (≈ 1.89 to 3.77 µM) | < 0.125 | < 0.125 | 1 to 2 (≈ 1.89 to 3.77 µM) | – | – | – | – | – |
| CCN1CCN(C(=O)NC(C(=O)N[C@H]2Cc3cccc(C(=O)O)c3OB2O)c2ccc(O)c(O)c2F)C(=O)C1=O (some centres unmarked) [Example 70] | 2 to 4 | 2 to 4 | 0.5 to 1 | 0.5 to 1 | 2 to 4 | 8 to 16 | 0.5 to 1 | 8 to 16 | 0.25 to 0.5 (≈ 0.448 to 0.896 µM) | < 0.125 | < 0.125 | 1 to 2 (≈ 1.79 to 3.58 µM) | – | – | – | – | – |
| CCN1CCN(C(=O)NC(C(=O)N[C@H]2Cc3cccc(C(=O)O)c3OB2O)c2ccc(S(N)(=O)=O)cc2)C(=O)C1=O (stereo partly drawn) [Example 102, (3R)-3-(2-(4-ethyl-2,3-dioxopiperazine-1-carboxamido)-2-(4-sulfamoylphenyl)acetamido)-2-hydroxy-3,4-dihydro-2H-benzo[e][1,2]oxaborinine-8-carboxylic acid] | 32 to 64 | 8 to 16 | < 0.25 | 2 to 4 | – | – | 32 to 64 | – | 1 to 2 (≈ 1.7 to 3.4 µM) | < 0.125 | < 0.125 | 1 to 2 (≈ 1.7 to 3.4 µM) | – | – | – | – | – |
| NS(=O)(=O)c1ccc(C(NC(=O)N2CCN(CCF)C(=O)C2=O)C(=O)N[C@H]2Cc3cccc(C(=O)O)c3OB2O)cc1 (stereo partly drawn) [Example 103, (3R)-3-(2-(4-(2-fluoroethyl)-2,3-dioxopiperazine-1-carboxamido)-2-(4-sulfamoylphenyl)acetamido)-2-hydroxy-3,4-dihydro-2H-benzo[e][1,2]oxaborinine-8-carboxylic acid] | 32 to 64 | 8 to 16 | < 0.25 | 2 to 4 | – | – | 32 to 64 | – | 1 to 2 (≈ 1.65 to 3.3 µM) | < 0.125 | < 0.125 | 1 to 2 (≈ 1.65 to 3.3 µM) | – | – | – | – | – |
| CCN1CCN(C(=O)NC(C(=O)N[C@H]2Cc3ccc(F)c(C(=O)O)c3OB2O)c2csc(N)n2)C(=O)C1=O (stereo partly drawn) [Example 109, (3R)-3-(2-(2-aminothiazol-4-yl)-2-(4-ethyl-2,3-dioxopiperazine-1-carboxamido)acetamido)-7-fluoro-2-hydroxy-3,4-dihydro-2H-benzo[e][1,2]oxaborinine-8-carboxylic acid] | 8 to 16 | 8 to 16 | 0.5 to 1 | 8 to 16 | 2 to 4 | 8 to 16 | 8 to 16 | 32 to 64 | 1 to 2 (≈ 1.82 to 3.65 µM) | 0.25 to 0.5 (≈ 0.456 to 0.912 µM) | 0.25 to 0.5 (≈ 0.456 to 0.912 µM) | 4 to 8 (≈ 7.3 to 14.6 µM) | – | – | – | – | – |
| CCN1CCN(C(=O)NC(C(=O)N[C@H]2Cc3cccc(C(=O)O)c3OB2O)c2ccc(B(O)O)cc2)C(=O)C1=O (some centres unmarked) [Example 112] | 32 to 64 | – | – | 2 to 4 | – | > 128 | – | – | 1 to 2 (≈ 1.81 to 3.62 µM) | < 0.125 | < 0.125 | 1 to 2 (≈ 1.81 to 3.62 µM) | 32 to 64 | < 0.25 | 2 to 4 | 32 to 64 | > 128 |
| O=C(O)c1cccc2c1OB(O)[C@@H](NC(=O)C(NC(=O)N1CCN(CCF)C(=O)C1=O)c1ccc(B(O)O)cc1)C2 (stereo partly drawn) [Example 113, (3R)-3-(2-(4-boronophenyl)-2-(4-(2-fluoroethyl)-2,3-dioxopiperazine-1-carboxamido)acetamido)-2-hydroxy-3,4-dihydro-2H-benzo[e][1,2]oxaborinine-8-carboxylic acid] | 32 to 64 | 32 to 64 | < 0.25 | 2 to 4 | 8 to 16 | > 128 | 32 to 64 | > 128 | 1 to 2 (≈ 1.75 to 3.51 µM) | < 0.125 | < 0.125 | 1 to 2 (≈ 1.75 to 3.51 µM) | – | – | – | – | – |
| CCN1CCN(C(=O)NC(C(=O)N[C@H]2Cc3ccc(F)c(C(=O)O)c3OB2O)c2ccc(O)c(O)c2Cl)C(=O)C1=O (stereo partly drawn) [Example 124, (3R)-3-(2-(2-chloro-3,4-dihydroxyphenyl)-2-(4-ethyl-2,3-dioxopiperazine-1-carboxamido)acetamido)-7-fluoro-2-hydroxy-3,4-dihydro-2H-benzo[e][1,2]oxaborinine-8-carboxylic acid] | 8 to 16 | 0.5 to 1 | < 0.25 | 0.5 to 1 | 0.5 to 1 | 8 to 16 | 8 to 16 | > 128 | 1 to 2 (≈ 1.69 to 3.37 µM) | 1 to 2 (≈ 1.69 to 3.37 µM) | < 0.125 | 4 to 8 (≈ 6.75 to 13.5 µM) | – | – | – | – | – |
| CCCN1CCN(C(=O)NC(C(=O)N[C@H]2Cc3ccc(F)c(C(=O)O)c3OB2O)c2ccc(O)c(O)c2Cl)C(=O)C1=O (some centres unmarked) [Example 125] | 2 to 4 | 2 to 4 | 0.5 to 1 | 2 to 4 | 0.5 to 1 | 2 to 4 | 32 to 64 | – | 4 to 8 (≈ 6.59 to 13.2 µM) | 1 to 2 (≈ 1.65 to 3.3 µM) | 0.25 to 0.5 (≈ 0.412 to 0.824 µM) | 16 to 32 (≈ 26.4 to 52.7 µM) | – | – | – | – | – |
| O=C(O)c1c(F)ccc2c1OB(O)[C@@H](NC(=O)C(NC(=O)N1CCN(CCF)C(=O)C1=O)c1ccc(O)c(O)c1Cl)C2 (some centres unmarked) [Example 131] | 2 to 4 | 8 to 16 | 0.5 to 1 | 2 to 4 | 2 to 4 | 8 to 16 | 8 to 16 | 32 to 64 | 4 to 8 (≈ 6.55 to 13.1 µM) | 0.25 to 0.5 (≈ 0.409 to 0.819 µM) | 0.25 to 0.5 (≈ 0.409 to 0.819 µM) | 4 to 8 (≈ 6.55 to 13.1 µM) | – | – | – | – | – |
| CCN1CCN(C(=O)NC(C(=O)N[C@H]2Cc3cccc(C(=O)O)c3OB2O)c2ncc(O)cc2F)C(=O)C1=O (stereo partly drawn) [Example 135, (3R)-3-(2-(4-ethyl-2,3-dioxopiperazine-1-carboxamido)-2-(3-fluoro-5-hydroxypyridin-2-yl)acetamido)-2-hydroxy-3,4-dihydro-2H-benzo[e][1,2]oxaborinine-8-carboxylic acid] | 2 to 4 | 8 to 16 | < 0.25 | 2 to 4 | 0.5 to 1 | 32 to 64 | 8 to 16 | 32 to 64 | 1 to 2 (≈ 1.84 to 3.68 µM) | < 0.125 | < 0.125 | 1 to 2 (≈ 1.84 to 3.68 µM) | – | – | – | – | – |
| CCN1CCN(C(=O)NC(C(=O)N[C@H]2Cc3ccc(F)c(C(=O)O)c3OB2O)c2cc(O)c(O)cc2F)C(=O)C1=O (stereo partly drawn) [Example 136, (3R)-3-(2-(4-ethyl-2,3-dioxopiperazine-1-carboxamido)-2-(2-fluoro-4,5-dihydroxyphenyl)acetamido)-7-fluoro-2-hydroxy-3,4-dihydro-2H-benzo[e][1,2]oxaborinine-8-carboxylic acid] | 8 to 16 | 2 to 4 | 0.5 to 1 | 2 to 4 | 2 to 4 | > 128 | 8 to 16 | 32 to 64 | 1 to 2 (≈ 1.74 to 3.47 µM) | 1 to 2 (≈ 1.74 to 3.47 µM) | 1 to 2 (≈ 1.74 to 3.47 µM) | 4 to 8 (≈ 6.94 to 13.9 µM) | – | – | – | – | – |
| CCN1CCN(C(=O)NC(C(=O)N[C@H]2Cc3ccc(F)c(C(=O)O)c3OB2O)c2ncc(O)cc2F)C(=O)C1=O (stereo partly drawn) [Example 145, (3R)-3-(2-(4-ethyl-2,3-dioxopiperazine-1-carboxamido)-2-(3-fluoro-5-hydroxypyridin-2-yl)acetamido)-7-fluoro-2-hydroxy-3,4-dihydro-2H-benzo[e][1,2]oxaborinine-8-carboxylic acid] | 8 to 16 | 8 to 16 | 0.5 to 1 | 2 to 4 | 2 to 4 | 32 to 64 | 8 to 16 | 32 to 64 | 0.25 to 0.5 (≈ 0.445 to 0.891 µM) | < 0.125 | < 0.125 | 1 to 2 (≈ 1.78 to 3.56 µM) | – | – | – | – | – |
